Values after ≈ are worked out from the molar mass of the structure shown. “Also recorded” adds a separate entry of the source.
Key:
[1] = tested on: rhinovirus Type 2; assay: microbe, parasite or virus in culture; assay type: cell-based; details: for MIC: Enterovirus, read-out: MIC vs. rhinovirus Type 2 in vitro
[2] = tested on: picornaviruses and enteroviruses; assay type: cell-based
[3] = tested on: Echo-11; assay: microbe, parasite or virus in culture; assay type: cell-based; details: read-out: MIC vs. Echo-11
[4] = tested on: Polio-3; assay: microbe, parasite or virus in culture; assay type: cell-based; details: read-out: MIC vs. Polio-3
[5] = tested on: polio-2 virus; assay: microbe, parasite or virus in culture; assay type: cell-based; details: read-out: MIC vs. polio-2 virus
[6] = tested on: human rhinovirus serotypes; assay type: cell-based
[7] = tested on: poliovirus; assay: animal or person; assay type: in vivo, mice
[8] = tested on: poliovirus; assay type: in vivo, mice; details: parenteral medication
[9] = tested on: Echo-9; assay: In vitro MIC against Echo-9; assay type: cell-based

Row | SMILES | MIC [1] [µg/mL] | further results
1 | COc1ccc(OCCCCCCCc2cc(C)no2)c(Cl)c1 [Example 2, 5-[7-(2-Chloro-4-methoxyphenoxy)heptyl]-3-methylisoxazole] | – | times as active in vitro against rhinovirus Type 2 as the corresponding 2-chloro-4-methoxyphenoxy compounds of U.S. Pat. No. 4,268,678 [1]: at least 15 times; in vitro activity against picornaviruses and enteroviruses [2]: in vitro activity against a variety of picornaviruses and enteroviruses; also recorded: active against other picornaviruses and enterviruses; MIC [3]: 0.04 µg/mL (≈ 0.118 µM); MIC [4]: 0.08 µg/mL (≈ 0.237 µM); MIC [5]: 0.15 µg/mL (≈ 0.444 µM); human rhinovirus serotypes against which active [6]: 24 of 27; most common human rhinovirus serotypes against which active [6]: six of the seven; minimal effective dose ([7]; Enterovirus C, in Mus musculus, po, 336 h, read-out: minimal inhibitory dose): 31 mg/kg; in vivo activity against poliovirus infections in mice [7]: active in vivo; in vivo activity against poliovirus infections in mice ([7]; listed as 5-[7-(2-chloro-4-methoxyphenoxy)heptyl]-3-methylisoxazole): in vivo activity against poliovirus infections in mice; challenge doses of poliovirus at which death was prevented ([8]; mice): ≤ 200 LD50; prevention of death in mice infected with poliovirus ([8]; challenge doses as high as 200 LD50): prevented death; MIC [9]: 0.15 µg/mL (≈ 0.444 µM)
2 | COc1ccc(OCCCCCCc2cc(C)no2)c(Cl)c1 [Example 3, 5-[6-(2-Chloro-4-methoxyphenoxy)hexyl]-3-methylisoxazole] | 0.8 (≈ 2.47 µM) | –
3 | COc1ccc(OCCCCCc2cc(C)no2)c(Cl)c1 [Example 4, 5-[5-(2-Chloro-4-methoxyphenoxy)pentyl]-3-methylisoxazole] | 0.4 (≈ 1.29 µM) | –
4 | Cc1cc(CCCCCCCOc2ccc(C#N)cc2)on1 [Example 5, 5-[7-(4-Cyanophenoxy)heptyl]-3-methylisoxazole] | – | activity vs. rhinovirus Type 2 in vitro [1]: inactive
5 | Cc1cc(CCCCCCOc2ccc(C#N)cc2)on1 [Example 6, 5-[6-(4-Cyanophenoxy)hexyl]-3-methylisoxazole] | 3.1 (≈ 10.9 µM) | –
6 | Cc1cc(CCCCCOc2ccc(C#N)cc2)on1 [Example 7, 5-[5-(4-Cyanophenoxy)pentyl]-3-methylisoxazole] | – | activity vs. rhinovirus Type 2 in vitro [1]: inactive
7 | Cc1cc(CCCCCCCOc2ccc(C(=O)OC(C)(C)C)cc2)on1 [Example 8, 5-[7-(4-Tertiary-butyloxycarbonylphenoxy)heptyl]-3-methylisoxazole] | 6.2 (≈ 16.6 µM) | –
8 | Cc1cc(CCCCCCCCOc2ccc(C#N)cc2)on1 [Example 10, 5-[8-(4-Cyanophenoxy)octyl]-3-methylisoxazole] | – | activity vs. rhinovirus Type 2 in vitro [1]: inactive
9 | Cc1cc(CCCCCCCOc2ccc(OC(C)C)cc2)on1 [Example 11, 3-Methyl-5-[7-(4-isopropoxyphenoxy)heptyl]isoxazole] | 0.65 (≈ 1.96 µM) | –
10 | Cc1cc(CCCCCCCOc2ccc(C(C)C)cc2)on1 [Example 12, 3-Methyl-5-[7-(4-isopropylphenoxy)heptyl]isoxazole] | 0.98 (≈ 3.11 µM) | –
11 | Cc1cc(CCCCCCCOc2ccc(Cl)cc2)on1 [Example 14, 3-Methyl-5-[7-(4-chlorophenoxy)heptyl]isoxazole] | 1.5 (≈ 4.87 µM) | MIC [5]: 0.4 µg/mL (≈ 1.3 µM)
12 | Cc1ccc(OCCCCCCCc2cc(C)no2)c(Cl)c1 [Example 15, 5-[7-(2-Chloro-4-methylphenoxy)heptyl]-3-methylisoxazole] | 1.2 (≈ 3.73 µM) | MIC [5]: 0.82 µg/mL (≈ 2.55 µM)
13 | Cc1cc(CCCCCCCOc2ccc(C(=O)O)cc2)on1 [Example 16, 5-[7-(4-Carboxyphenoxy)heptyl]-3-methylisoxazole] | 10 (≈ 31.5 µM) | –
14 | Cc1cc(CCCCCOc2ccc(C(=O)O)cc2)on1 [Example 17, 5-[5-(4-Carboxyphenoxy)pentyl]-3-methylisoxazole] | 12.5 (≈ 43.2 µM) | –
15 | Cc1cc(CCCCCCCOc2cccc(C(=O)O)c2)on1 [Example 19, 5-[7-(3-Carboxyphenoxy)heptyl]-3-methylisoxazole] | – | activity vs. rhinovirus Type 2 in vitro [1]: inactive
16 | Cc1cc(CCCCCCCCOc2ccc(C(=O)O)cc2)on1 [Example 20, 5-[8-(4-Carboxyphenoxy)octyl]-3-methylisoxazole] | – | activity vs. rhinovirus Type 2 in vitro [1]: inactive
17 | CCOC(=O)c1ccc(OCCCCCCCc2cc(C)no2)cc1 [Example 22, 5-[7-(4-Ethoxycarbonylphenoxy)heptyl]-3-methylisoxazole] | 0.025 (≈ 0.0724 µM) | –
18 | CCOC(=O)c1ccc(OCCCCCc2cc(C)no2)cc1 [Example 23, 5-[5-(4-Ethoxycarbonylphenoxy)pentyl]-3-methylisoxazole] | 0.015 (≈ 0.0473 µM) | –

Row | SMILES | MIC [1] [µg/mL] | further results
19 | CCOC(=O)c1ccc(OCCCCCCc2cc(C)no2)cc1 [Example 24, 5-[6-(4-Ethoxycarbonylphenoxy)hexyl]-3-methylisoxazole] | 0.025 (≈ 0.0754 µM) | –
20 | CCOC(=O)c1ccc(OCCCCCCCCc2cc(C)no2)cc1 [Example 25, 5-[8-(4-Ethoxycarbonylphenoxy)octyl]-3-methylisoxazole] | 0.05 (≈ 0.139 µM) | –
21 | CCOC(=O)c1cccc(OCCCCCCCc2cc(C)no2)c1 [Example 26, 5-[7-(3-Ethoxycarbonylphenoxy)heptyl]-3-methylisoxazole] | 1.6 (≈ 4.63 µM) | –
22 | Cc1cc(CCCCCCCOc2ccc(C(=O)OC(C)C)cc2)on1 [Example 27, 5-[7-(4-Isopropyloxycarbonylphenoxy)heptyl]-3-methylisoxazole] | 0.23 (≈ 0.64 µM) | –
23 | CCCOC(=O)c1ccc(OCCCCCCCc2cc(C)no2)cc1 [Example 28, 5-[7-(4-Propyloxycarbonylphenoxy)heptyl]-3-methylisoxazole] | 0.07 (≈ 0.195 µM) | –
24 | COC(=O)c1ccc(OCCCCCCCc2cc(C)no2)cc1 [Example 29, 5-[7-(4-Methoxycarbonylphenoxy)heptyl]-3-methylisoxazole] | 3 (≈ 9.05 µM) | –
25 | CCOC(=O)c1ccc(OCCCCc2cc(C)no2)cc1 [Example 30, 5-[4-(4-Ethoxycarbonylphenoxy)butyl]-3-methylisoxazole] | 3.1 (≈ 10.2 µM) | –
26 | CC(=O)c1ccc(OCCCCCCCc2cc(C)no2)cc1 [Example 31, 5-[7-(4-Acetylphenoxy)heptyl]-3-methylisoxazole] | 1.6 (≈ 5.07 µM) | –
27 | CCC(=O)c1ccc(OCCCCCCCc2cc(C)no2)cc1 [Example 32, 5-[7-(4-Propionylphenoxy)heptyl]-3-methylisoxazole] | 1.7 (≈ 5.16 µM) | –
28 | Cc1cc(CCCCCCCOc2ccc(C(=O)NN)cc2)on1 [Example 33, 5-[7-(4-Hydrazinocarbonylphenoxy)heptyl]-3-methylisoxazole] | 0.64 (≈ 1.93 µM) | –
29 | Cc1cc(CCCCCCCOc2ccc(C(N)=O)cc2)on1 [Example 34, 5-[7-(4-Carbamylphenoxy)heptyl]-3-methylisoxazole] | – | activity vs. rhinovirus Type 2 in vitro [1]: not active
30 | Cc1cc(CCCCCCCOc2ccc(C(=O)N(C)C)cc2)on1 [Example 35(b), N,N-dimethyl-4-[7-(3-methyl-5-isoxazolyl)heptyloxy]benzamide] | – | MIC [5]: 2.5 µg/mL (≈ 7.26 µM)
31 | CCC(=NO)c1ccc(OCCCCCCCc2cc(C)no2)cc1 [Example 36, 5-[7-(4-Propionylphenoxy)heptyl]-3-methylisoxazole oxime] | 2.6 (≈ 7.55 µM) | MIC [5]: 0.2 µg/mL (≈ 0.581 µM)
32 | Cc1cc(CCCCCCCOc2ccc([N+](=O)[O-])cc2)on1 [Example 37(b), 3-methyl-5-[7-(4-nitrophenoxy)heptyl]isoxazole] | – | MIC [5]: 1.5 µg/mL (≈ 4.71 µM)
33 | COc1ccc(OCCCCCCCc2cc(C)no2)c([N+](=O)[O-])c1 [Example 38, 3-Methyl-5-[7-(2-nitro-4-methoxyphenoxy)heptyl]isoxazole] | 0.3 (≈ 0.861 µM) | MIC [5]: 0.17 µg/mL (≈ 0.488 µM)
34 | Cc1cc(CCCCCCCc2ccc(C#N)cc2)on1 [Example 39(f), 5-[7-(4-Cyanophenyl)heptyl]-3-methylisoxazole] | 11.2 (≈ 39.7 µM) | –
35 | COc1ccc(OCCCCCc2cc(C)on2)c(Cl)c1 [Example 41, 3-[5-(2-Chloro-4-methoxyphenoxy)pentyl]-5-methylisoxazole] | 0.7 (≈ 2.26 µM) | MIC [5]: 1.4 µg/mL (≈ 4.52 µM)
